Source: US12692221B2 (priority 2024, dated 2026)
In brackets after ≈: the same amount, converted by molar mass.

Assays:
[1] = system: BZD (central); experiment: Radioligand binding BZD (central) (agonist radioligand), [^3H]flunitrazepam, rat cerebral cortex
[2] = biological target: T1, CB1 (h) (Homo sapiens, UniProt P21554); experiment: Radioligand binding CB1 (h) (agonist radioligand), [^3H]CP 55940, Chem-RBL cells
T1 construct: expressed in transfected cells; host or cells: Chem-RBL cells

[3] = biological target: T2, H1 (h) (Homo sapiens, UniProt P35367); experiment: Radioligand binding H1 (h) (antagonist radioligand), [^3H]pyrilamine, HEK-293 cells
T2 construct: expressed in transfected cells; host or cells: HEK-293 cells
Description: (§1) Methods—Binding Assays: In vitro binding assays were performed using human recombinant receptors expressed in mammalian cell lines. Receptors were expressed in either HEK-293 or CHO cells depending on the target, and assay conditions (radioligand, concentration, nonspecific competitor, temperature, and incubation time) were optimized for each receptor. All assays were conducted in triplicate, and specific binding was quantified by scintillation counting as the detection method for each listed assay.
(§2) Specific binding was expressed as a percentage of control-specific binding, and percent inhibition was calculated using the formula in Ex. 8 above. Half-maximal inhibitory concentrations (IC50) were determined by non-linear regression analysis of the inhibition curves using the Hill equation (see Ex. 8). Inhibition constants (Ki) were calculated using the Cheng-Prusoff equation (see Ex. 8). KD values used in these calculations had been previously established for each receptor under the assay conditions (see Table 6). Data analysis was performed using software developed at Cerep and validated against SigmaPlot 4.0 for Windows.

[4] = biological target: T3, M1 (h) (Homo sapiens, UniProt P11229); experiment: Radioligand binding M1 (h) (antagonist radioligand), [^3H]pirenzepine, CHO cells
T3 construct: expressed in transfected cells; host or cells: CHO cells
T3 sequence (P11229 1-460): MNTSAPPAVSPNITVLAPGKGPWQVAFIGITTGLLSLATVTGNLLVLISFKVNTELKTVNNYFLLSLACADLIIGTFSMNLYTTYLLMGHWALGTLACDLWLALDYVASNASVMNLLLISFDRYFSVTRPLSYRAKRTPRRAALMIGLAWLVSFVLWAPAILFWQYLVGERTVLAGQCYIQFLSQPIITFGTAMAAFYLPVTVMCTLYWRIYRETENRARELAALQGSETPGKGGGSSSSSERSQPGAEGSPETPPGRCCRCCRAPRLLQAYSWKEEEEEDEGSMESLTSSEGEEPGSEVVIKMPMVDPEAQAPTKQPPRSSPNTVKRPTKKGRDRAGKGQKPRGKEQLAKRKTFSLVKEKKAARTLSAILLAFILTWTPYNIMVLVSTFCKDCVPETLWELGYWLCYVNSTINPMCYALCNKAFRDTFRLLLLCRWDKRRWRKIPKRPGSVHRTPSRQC
Description: as §1, §2

[5] = biological target: T4, delta (DOP) (h) (Homo sapiens, UniProt P41143); experiment: Radioligand binding delta (DOP) (h) (agonist radioligand), [^3H]DALE, Chem-1 RBL; conditions: delta (DOP) (h) (agonist radiolig.)
T4 construct: expressed in transfected cells; host or cells: Chem-1 RBL
Description: as §1, §2

[6] = biological target: T5, μ (MOP) (h) (Homo sapiens, UniProt P35372); experiment: Radioligand binding μ (MOP) (h) (agonist radioligand), [^3H]DAMGO, HEK-293 cells
T5 construct: expressed in transfected cells; host or cells: HEK-293 cells
Description: as §1, §2

[7] = system: Ca^2+ channel (L, dihydropyridine site); experiment: Radioligand binding Ca^2+ channel (L, dihydropyridine site) (antagonist radioligand), [^3H]nitrendipine, rat cerebral cortex
[8] = biological target: T6, PDE4D2(h) (Homo sapiens, UniProt Q08499); experiment: Enzyme assay PDE4D2(h), [3H]cAMP, scintillation counting; assay type: biochemical
T6 construct: host or cells: Sf9 cells
Description: Methods—Enzyme and Uptake Assays: In vitro enzyme and uptake assays were conducted by Eurofins Discovery using human recombinant enzymes expressed in various mammalian and insect cell lines. Enzymatic activity was measured using appropriate substrates or tracers under conditions optimized for each target, as detailed in Table 7. Reactions were incubated at room temperature for a defined duration and terminated according to established protocols. The measured components (either enzymatic products or remaining substrate) were quantified using fluorimetry, photometry, scintillation counting, or LANCE technology, depending on the assay. Assay-specific parameters, including substrate identity, cell line source, incubation time, and detection method, are provided in Table 7.
All measurements were performed in technical replicates to ensure reproducibility and data quality.
Results were expressed both as a percentage of control-specific activity and as percent inhibition of control-specific activity. Percent activity was calculated as (measured specific activity/control specific activity)×100, and percent inhibition as 100−[(measured specific activity/control specific activity)×100], based on values obtained in the presence of test compounds. IC50 and EC50 values, along with Hill coefficients (nH), were determined by nonlinear regression analysis of inhibition or concentration-response curves generated from mean replicate values. Hill curve fitting was performed as previously described using software developed at Cerep and validated against SigmaPlot® 4.0 for Windows® (© 1997 by SPSS Inc.).

[9] = Aqueous solubility by sequential dilution in water, microscopic inspection; conditions: for aqueous solubility relative to reference compound 2C-iBu: under the same conditions; for solubility: water, thermodynamic from solid
[10] = biological target: T7, 5-HT2A (Homo sapiens, UniProt P28223); experiment: Calcium flux agonist assay, 293T cells; assay type: cell-based; set-up: expressed in transfected cells; host or cells: Human Embryonic Kidney (293T) cells, transient; conditions: for Emax: HEK-293T, calcium flux, 5-HT2A, normalized to maximum 5-HT response
[11] = biological target: T7, 5-HT2A; experiment: IP-One HTRF IP-1 accumulation functional assay, 5-HT2A-expressing HEK293; assay type: cell-based; set-up: host or cells: HEK293
Description: Methods (5-HT2A and 5-HT2C IP-One Functional Activity Assays): Intracellular accumulation of IP-1 was measured using an IP-One HTRF assay kit (Cat. #62IPAPEJ, Cisbio) at WuXi AppTec Co. Ltd. (Hong Kong) Discovery Biology Unit according to their standard protocols. Briefly, the reference compounds and screening compounds were 3.16-fold serially diluted in 100% DMSO for 10 points using Bravo. 70 nL of compounds were added to the assay plate using Echo555. Added 14 μL/7500 cells/well of 5-HT2A-expressing HEK293 or 5-HT2C-expressing HEK293 to the assay plate and incubate for 60 min at 37° C. Added 3 μL of IP-1 d2 Reagent working solution and 3 μL of IP-1 Tb Cryptate Antibody working solution to all wells. The plates were incubated for 1 hour at room temperature and read for fluorescence at 620 nm and 665 nm on an EnVision Multimode Plate Reader (PerkinElmer). The ratio of the acceptor and donor emission signals (665/620) were calculated for each individual well and substituted into the standard curve to obtain the log concentration of IP level. After converting to the antilog base IP-1, the average background control signal was subtracted from each well and values were normalized to the maximal response of 5-HT at 3 μM (100%). % MAX was calculated by taking the average normalized maximal response for each compound at the highest concentration tested. The data were analyzed using the four-parameter nonlinear regression curve-fitting function in GraphPad Prism 5 (GraphPad Software, San Diego, CA) to generate potency (EC50) values. The represented plots show normalized IP-1 values versus compound concentrations; the corresponding numerical data are parameter estimates for the concentration-response curve using the four-parameter nonlinear regression curve-fitting function in GraphPad Prism 10.

T4 sequence (P41143 whole entry): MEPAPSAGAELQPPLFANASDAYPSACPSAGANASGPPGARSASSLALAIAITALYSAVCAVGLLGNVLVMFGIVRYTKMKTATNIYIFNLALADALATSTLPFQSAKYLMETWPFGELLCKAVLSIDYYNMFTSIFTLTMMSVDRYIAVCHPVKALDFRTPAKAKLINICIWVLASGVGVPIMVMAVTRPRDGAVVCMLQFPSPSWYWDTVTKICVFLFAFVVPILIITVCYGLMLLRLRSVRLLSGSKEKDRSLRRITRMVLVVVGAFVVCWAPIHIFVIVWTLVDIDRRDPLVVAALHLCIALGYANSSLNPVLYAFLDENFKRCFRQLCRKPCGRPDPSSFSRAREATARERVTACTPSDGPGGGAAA
T2 sequence (P35367 whole entry): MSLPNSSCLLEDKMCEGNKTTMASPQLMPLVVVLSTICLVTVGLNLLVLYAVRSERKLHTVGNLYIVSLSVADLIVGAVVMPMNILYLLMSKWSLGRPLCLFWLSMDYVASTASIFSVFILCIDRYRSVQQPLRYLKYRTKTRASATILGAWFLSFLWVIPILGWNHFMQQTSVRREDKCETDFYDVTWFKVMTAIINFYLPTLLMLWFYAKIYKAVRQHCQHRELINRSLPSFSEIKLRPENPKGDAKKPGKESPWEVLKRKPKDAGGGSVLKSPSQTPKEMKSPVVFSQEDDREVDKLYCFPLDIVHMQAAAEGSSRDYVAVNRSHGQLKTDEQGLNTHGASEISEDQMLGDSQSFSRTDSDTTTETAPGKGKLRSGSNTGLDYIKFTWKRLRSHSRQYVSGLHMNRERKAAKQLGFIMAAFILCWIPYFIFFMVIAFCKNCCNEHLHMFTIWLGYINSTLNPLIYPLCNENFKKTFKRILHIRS
T6 sequence (Q08499 303-809 limits assumed): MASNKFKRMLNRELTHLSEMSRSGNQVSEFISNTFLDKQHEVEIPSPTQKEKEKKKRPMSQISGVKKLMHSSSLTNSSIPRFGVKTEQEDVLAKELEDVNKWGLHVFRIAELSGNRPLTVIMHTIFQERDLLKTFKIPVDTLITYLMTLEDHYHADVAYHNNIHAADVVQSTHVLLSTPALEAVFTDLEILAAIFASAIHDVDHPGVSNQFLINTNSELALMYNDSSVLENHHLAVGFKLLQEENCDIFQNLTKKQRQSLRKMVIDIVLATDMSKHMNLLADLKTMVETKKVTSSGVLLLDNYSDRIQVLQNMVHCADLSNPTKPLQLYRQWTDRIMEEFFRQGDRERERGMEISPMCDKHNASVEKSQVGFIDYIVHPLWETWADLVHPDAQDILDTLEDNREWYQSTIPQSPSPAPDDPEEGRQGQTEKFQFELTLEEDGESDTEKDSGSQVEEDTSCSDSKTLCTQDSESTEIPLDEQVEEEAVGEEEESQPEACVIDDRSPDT
T5 sequence (P35372 whole entry): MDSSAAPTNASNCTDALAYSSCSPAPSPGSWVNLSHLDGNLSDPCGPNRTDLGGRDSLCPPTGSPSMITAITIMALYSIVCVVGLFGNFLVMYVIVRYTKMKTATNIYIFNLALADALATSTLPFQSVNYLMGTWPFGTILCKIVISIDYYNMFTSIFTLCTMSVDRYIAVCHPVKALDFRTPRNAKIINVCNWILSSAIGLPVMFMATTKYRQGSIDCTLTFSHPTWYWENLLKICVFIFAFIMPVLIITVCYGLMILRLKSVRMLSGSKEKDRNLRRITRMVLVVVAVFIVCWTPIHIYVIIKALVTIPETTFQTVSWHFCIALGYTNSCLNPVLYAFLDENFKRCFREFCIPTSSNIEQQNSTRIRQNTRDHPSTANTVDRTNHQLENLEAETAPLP
T1 sequence (P21554 whole entry): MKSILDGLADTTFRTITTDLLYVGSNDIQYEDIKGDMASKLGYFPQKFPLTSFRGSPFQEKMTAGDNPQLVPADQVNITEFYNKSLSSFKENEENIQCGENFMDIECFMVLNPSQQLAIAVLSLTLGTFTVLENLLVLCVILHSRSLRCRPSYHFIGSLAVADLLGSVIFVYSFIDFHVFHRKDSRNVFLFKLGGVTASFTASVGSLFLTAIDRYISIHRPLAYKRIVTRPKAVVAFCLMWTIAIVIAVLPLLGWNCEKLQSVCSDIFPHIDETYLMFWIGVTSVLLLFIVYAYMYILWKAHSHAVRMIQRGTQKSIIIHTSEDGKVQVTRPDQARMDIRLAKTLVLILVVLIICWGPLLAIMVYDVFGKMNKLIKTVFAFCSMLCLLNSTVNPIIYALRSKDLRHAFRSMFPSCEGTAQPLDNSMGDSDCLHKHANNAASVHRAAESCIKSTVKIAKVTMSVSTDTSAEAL
T7 sequence (P28223 whole entry, looked up): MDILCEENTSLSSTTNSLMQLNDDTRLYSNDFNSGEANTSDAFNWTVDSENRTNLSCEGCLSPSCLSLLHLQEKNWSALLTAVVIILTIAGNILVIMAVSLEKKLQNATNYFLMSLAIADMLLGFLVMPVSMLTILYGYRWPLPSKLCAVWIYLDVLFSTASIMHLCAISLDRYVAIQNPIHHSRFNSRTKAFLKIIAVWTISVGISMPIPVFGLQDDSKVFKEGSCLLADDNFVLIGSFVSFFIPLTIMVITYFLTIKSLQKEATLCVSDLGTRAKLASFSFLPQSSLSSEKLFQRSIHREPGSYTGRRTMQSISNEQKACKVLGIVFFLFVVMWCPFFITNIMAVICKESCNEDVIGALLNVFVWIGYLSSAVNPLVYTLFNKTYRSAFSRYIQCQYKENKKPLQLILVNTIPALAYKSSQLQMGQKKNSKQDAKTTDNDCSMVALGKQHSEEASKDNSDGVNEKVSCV

In the case of `COCc1cc(CCN)c(O)cc1CC(C)C` [2CiBu-2OH-5MM, 2-(2-aminoethyl)-5-isobutyl-4-(methoxymethyl)phenol], the “Mean Percent Inhibition of Control Specific Binding” value (“Mean Percent Inhibition” below) [1] is reported as 8.3%, the “Mean Percent Inhibition” value [2] is reported as −1.9% and the “Mean Percent Inhibition” value [3] is reported as 5.7%. For the same molecule, the “Mean Percent Inhibition” value [4] was 4.9%, the “Mean Percent Inhibition” value [5] was 19.5% and the “Mean Percent Inhibition” value [6] was 24.4%. The “Mean Percent Inhibition” value [7] was 8.4%, the “Mean Percent Inhibition” value [8] was 67.4% and the “aqueous solubility relative to reference compound 2C-iBu” value [9] was “significantly higher aqueous solubility”. For the same molecule, the solubility [9] was 110 mM (≈ 26.2 mg/mL), the EC50 [10] was 55.9 nM and the Emax [10] was 115%.
In the case of `COCCc1cc(CCN)c(OC)cc1Br` [Compound 2CB-5ME, reference compound], the “Mean Percent Inhibition” value [1] is reported as −3.0%, the “Mean Percent Inhibition” value [2] is reported as 4.0% and the “Mean Percent Inhibition” value [3] is reported as 7.3%. The “Mean Percent Inhibition” value [4] was 55.4%, the “Mean Percent Inhibition” value [5] was 9.7% and the “Mean Percent Inhibition” value [6] was 28.6%. The “Mean Percent Inhibition” value [7] was 0.2%, the “Mean Percent Inhibition” value [8] was −5.7% and the EC50 [11] was 227 nM.
In the case of `COCc1cc(CCN)c(OC)cc1Br` [Compound 2CB-5MM, 2-(4-bromo-2-methoxy-5-(methoxymethyl)phenyl)ethan-1-amine], the “Mean Percent Inhibition” value [1] is reported as −1.8%, the “Mean Percent Inhibition” value [2] is reported as −10.4% and the “Mean Percent Inhibition” value [3] is reported as 7.3%. For the same molecule, the “Mean Percent Inhibition” value [4] was 43.4%, the “Mean Percent Inhibition” value [5] was 8.5% and the “Mean Percent Inhibition” value [6] was 31.1%. For the same molecule, the “Mean Percent Inhibition” value [7] was 2.7%, the “Mean Percent Inhibition” value [8] was −0.5% and the EC50 [11] was 59.1 nM. The solubility [9] was 43.5 mM (≈ 11.9 mg/mL), the EC50 [10] was 0.68 nM and the Emax [10] was 114%.
For `COCc1cc(CCN)c(OC)cc1CC(C)C` [Compound 2CiBu-5MM, 2-[4-isobutyl-2-methoxy-5-(methoxymethyl)phenyl]ethanamine], the “Mean Percent Inhibition” value [1] was 6.6%, the “Mean Percent Inhibition” value [2] was −5.6% and the “Mean Percent Inhibition” value [3] was 0.6%. The “Mean Percent Inhibition” value [4] was 52.6%, the “Mean Percent Inhibition” value [5] was 11.9% and the “Mean Percent Inhibition” value [6] was 31.5%. The “Mean Percent Inhibition” value [7] was −4.6%, the “Mean Percent Inhibition” value [8] was 3.0% and the EC50 [11] was 341 nM. The “aqueous solubility relative to reference compound 2C-iBu” value [9] was “significantly higher aqueous solubility”, the “aqueous solubility relative to reference compound 2C-iBu” value ([9]; listed as Compound 8) was “over ten times more soluble” and the solubility [9] was 365 mM (≈ 91.7 mg/mL). The EC50 [10] was 42.2 nM and the Emax [10] was 111%.
